Assay results from US9132126B2, “Phenyl-isoxazole derivatives and preparation process thereof” (priority 2011, dated 2015).
Converted amounts (≈) assume the structure as drawn. “And” between values parts separate entries of the source, which are not always exact repeats. Identical values can stand only once. Like-named read-outs stand apart in the source and are kept apart here.

Legend:
[1] = system: influenza virus (K09) expressing GFP; format: cell-based; set-up: key: ◯ = effective; X = ineffective
[2] = system: novel influenza virus (K09); assay: microbe, parasite or virus in culture; format: cell-based; settings: for EC50: MDCK, 72 h, read-out: Plaque reduction (Experimental Example 2) EC50
[3] = Cytotoxicity assay using MTT; format: cell-based; settings: dog, MDCK cells infected with influenza virus (K09), MDCK cell infected with K09; compound 24 hours; read-out: MTT assay (Experimental Example 3) CC50
Protocol: (§1) In this experiment, a cell was infected with a virus, and then the virus was directly treated with a compound so as to determine if the virus-infected cell has toxicity. For this, a cell (MDCK) was infected with an influenza virus (K09) for 1 hour, and treated with the compound with different concentrations for 24 hours. Then, the cell was treated with a MTT reagent for 1 hour. After 1 hour, a formazan crystal produced by the MTT reagent was dissolved in DMSO, and the absorbance was measured by an ELISA reader so as to determine CC50.
(§2) measured by MTT assay. A maximum concentration of the compound, at which the number of cells is reduced to half or more compared to that of a control group

[4] = system: novel influenza virus (B/Field); assay: microbe, parasite or virus in culture; format: cell-based
[5] = system: H1N1 influenza virus (solomon); assay: microbe, parasite or virus in culture; format: cell-based
[6] = Acute toxicity test through oral administration in a rat; format: in vivo; settings: male SD-Rat, single oral administration, 14 days observation; for LD50 at 14 days: Sprague-Dawley (SD), in vivo
Protocol: The acute toxicity of the inventive compound was determined through oral administration in a rat. Since the compound is expected to be orally administered in a clinical situation, an oral administration route was selected. A male rat aged 6 weeks (SD-Rat, 220±30 g) was subjected to quarantine, and acclimated for 1 week under a condition of lighting of 12 hours (08:00˜20:00), and luminance of 150-300 Lux at 22±3° C. at a relative humidity of 50±20%, while being freely fed with feed and water. Each of a control group and an experimental group include 8 rats. The control group was orally administered with 0.5% HPMC, and the experimental group was orally administered with a material (different concentrations) suspended in 0.5% HPMC, by using a sonde in an amount in proportion to the measured weight of each individual.
The concentration of the drug administered to the experimental group was set as 2000 mg/kg (the highest concentration for a single dose administration in a non-clinical test), and 1000 mg/kg, and 500 mg/kg (with a common ratio). For 14 days from drug administration, clinical symptoms were observed while the weight change was measured. Test animals that died during the test were subjected to autopsy, and abnormalities of main organs (heart, liver, lung, spleen, kidney, and large intestine) were observed and recorded. On the last day of the test (on the 14th day from the administration), all individuals were subjected to autopsy, and the changes of the organs caused by a test material were observed and compared to those in the control group. In the control group, no rats had died, and abnormalities were not observed through autopsy.
Each group was orally administered in a concentration of 500 mg/kg, 1000 mg/kg, and 2000 mg/kg. For 14 days from the administration, according to the test method, clinical symptoms were observed. […] Also, in the groups administered in various amounts, no individuals died. […] Further, no abnormal responses were observed, and from the autopsy results, no peculiarities were observed.

[7] = system: cell (MDCK) infected with an influenza virus (K09); assay: Cytotoxicity assay using MTT; format: cell-based; settings: compound 24 hours
Protocol: as §1, §2

[8] = Influenza A virus, Solomon (H1N1), read-out: EC50

COc1cccc(N2CCN(C(=O)c3c(-c4cccc(F)c4)noc3C)CC2)c1 [Example 12, (3-(3-fluorophenyl)-5-methylisoxazol-4-yl)(4-(3-methoxyphenyl)piperazine-1-yl)methanone]
GFP reduction (Experimental Example 1) effect [1]: ◯
SI value K09 ([2]; K09, CC50/EC50): 25 to 50
EC50 [2]: 3.12 µg/mL (≈ 7.9 µM)
CC50 at 24 h [3]: 78.1 to 156 µg/mL (≈ 198 to 395 µM)
EC50 ([4]; unidentified influenza virus): > 50 µg/mL
EC50 [5, 8]: 0.781 µg/mL (≈ 1.98 µM)
SI value ([5]; Solomon (H1N1), CC50/EC50): 100.032 to 200.064
LD50 at 14 days [6]: > 2000 mg/kg

COc1cccc(N2CCN(C(=O)c3c(-c4ccccc4Cl)noc3C)CC2)c1 [Example 9, (3-(2-chlorophenyl)-5-methylisoxazol-4-yl)(4-(3-methoxyphenyl)piperazine-1-yl)methanone]
GFP reduction (Experimental Example 1) effect [1]: ◯
SI value K09 ([2]; K09, CC50/EC50): 801.282 to 3205.128
EC50 [2]: 0.195 to 0.39 µg/mL (≈ 0.473 to 0.947 µM)
CC50 at 24 h [3]: 312 to 625 µg/mL (≈ 759 to 1520 µM)
EC50 ([4]; unidentified influenza virus): > 50 µg/mL
EC50 [5, 8]: 0.048 to 0.097 µg/mL (≈ 0.117 to 0.236 µM)
SI value ([5]; Solomon (H1N1), CC50/EC50): 3221.649 to 13020.833
LD50 at 14 days [6]: > 2000 mg/kg

COc1cccc(N2CCN(C(=O)c3c(-c4ccccc4OC(F)(F)F)noc3C)CC2)c1 [Example 36]
GFP reduction (Experimental Example 1) effect [1]: ◯
SI value K09 ([2]; K09, CC50/EC50): 320<
Plaque reduction (Experimental Example 2) EC50 ([2]; K09, MDCK cell, 72 hours): 1.56 µg/mL
MTT assay (Experimental Example 3) CC50 [7]: 500< μg/ml

COc1ccccc1N1CCN(C(=O)c2c(-c3ccccc3C(F)(F)F)noc2C)CC1 [Example 4]
GFP reduction (Experimental Example 1) effect [1]: ◯
Plaque reduction (Experimental Example 2) EC50 [2]: 12.5 to 25 µg/mL
SI value K09 [2]: 3.125 to 12.5
MTT assay (Experimental Example 3) CC50 [7]: 78.12 to 156.25 µg/mL and 78.125 to 156.25 µg/mL
SI value [4]: 1.563>
EC50 ([4]; B/Field): 50< μg/ml
SI value [5]: 6.25 to 12.5
EC50 ([5]; Solomon (H1N1)): 12.5 µg/mL (≈ 28.1 µM)
LD50 [6]: 2,000< mg/kg

CCOC(=O)C1CCN(C(=O)c2c(-c3ccccc3OC(F)(F)F)noc2N)CC1 [Example 124]
GFP reduction (Experimental Example 1) effect [1]: ◯
Plaque reduction (Experimental Example 2) EC50 [2]: 3.125 to 6.25 µg/mL
SI value K09 [2]: 50 to 100
MTT assay (Experimental Example 3) CC50 [7]: 312.5 µg/mL
SI value [4]: 6.25>
EC50 ([4]; B/Field): 50< μg/ml
SI value [5]: 50
EC50 ([5]; Solomon (H1N1)): 6.25 µg/mL (≈ 14.6 µM)
LD50 [6]: 2,000< mg/kg

Nc1onc(-c2ccccc2OC(F)(F)F)c1C(=O)N1CCN(c2ccc(Cl)c(Cl)c2)CC1 [Example 83]
GFP reduction (Experimental Example 1) effect [1]: ◯
SI value K09 ([2]; K09, CC50/EC50): 100.2 to 291.75
Plaque reduction (Experimental Example 2) EC50 ([2]; K09, MDCK cell, 72 hours): 0.65 to 1.5 µg/mL
MTT assay (Experimental Example 3) CC50 [7]: 150.3 to 189.64 µg/mL
LD50 [6]: 2,000< mg/kg

COc1cccc(N2CCN(C(=O)c3c(-c4ccccc4C(F)(F)F)noc3C)CC2)c1 [Example 3, (4-(3-methoxyphenyl)piperazine-1-yl)(5-methyl-3-(2-(trifluoromethyl)phenyl)isoxazol-4-yl)methanone]
GFP reduction (Experimental Example 1) effect [1]: ◯
SI value K09 ([2]; K09, CC50/EC50): 473.84 to 1903.03
EC50 [2]: 0.33 to 0.65 µg/mL (≈ 0.741 to 1.46 µM)
CC50 at 24 h [3]: 308 to 628 µg/mL (≈ 691 to 1410 µM)
EC50 ([4]; unidentified influenza virus): > 50 µg/mL
EC50 [5, 8]: 0.064 to 0.094 µg/mL (≈ 0.144 to 0.211 µM)
SI value ([5]; Solomon (H1N1), CC50/EC50): 3276.59 to 9812.50
LD50 at 14 days [6]: > 2000 mg/kg

Cc1onc(-c2ccccc2OC(F)(F)F)c1C(=O)N1CCN(c2ccc(Cl)c(Cl)c2)CC1 [Example 35, (4-(3,4-dichlorophenyl)piperazine-1-yl)(5-methyl-3-(2-(trifluoromethoxy)phenyl)isoxazol-4-yl)methanone]
GFP reduction (Experimental Example 1) effect [1]: ◯
EC50 [2]: 0.395 to 0.781 µg/mL (≈ 0.79 to 1.56 µM)
CC50 at 24 h [3]: 312 to 625 µg/mL (≈ 625 to 1250 µM)
SI value ([4]; B/Field, CC50/EC50): 50 to 100
EC50 ([4]; unidentified influenza virus): 6.25 µg/mL (≈ 12.5 µM)
EC50 [5, 8]: 0.097 to 0.195 µg/mL (≈ 0.194 to 0.39 µM)
SI value ([5]; Solomon (H1N1), CC50/EC50): 1602.564 to 6443.298
LD50 at 14 days [6]: > 2000 mg/kg

COc1cccc(N2CCN(C(=O)c3c(-c4ccccc4C(F)(F)F)noc3N)CC2)c1 [Example 92]
GFP reduction (Experimental Example 1) effect [1]: ◯
SI value K09 ([2]; K09, CC50/EC50): 0.32 to 1.59
Plaque reduction (Experimental Example 2) EC50 ([2]; K09, MDCK cell, 72 hours): 21 to 45 µg/mL
MTT assay (Experimental Example 3) CC50 [7]: 14.62 to 33.52 µg/mL

Nc1onc(-c2ccc(OC(F)(F)F)cc2)c1C(=O)N1CCN(c2ccc(Cl)c(Cl)c2)CC1 [Example 99]
GFP reduction (Experimental Example 1) effect [1]: ◯
SI value K09 ([2]; K09, CC50/EC50): 0.32 to 1.59
Plaque reduction (Experimental Example 2) EC50 ([2]; K09, MDCK cell, 72 hours): 21 to 45 µg/mL
MTT assay (Experimental Example 3) CC50 [7]: 14.62 to 33.52 µg/mL

Cc1onc(-c2cccc(F)c2)c1C(=O)N1CCN(c2ccccc2O)CC1 [Example 16, (3-(3-fluorophenyl)-5-methylisoxazol-4-yl)(4-(2-hydroxyphenyl)piperazine-1-yl)methanone]
GFP reduction (Experimental Example 1) effect [1]: ◯
SI value K09 ([2]; K09, CC50/EC50): 200.321
EC50 [2]: 0.39 µg/mL (≈ 1.02 µM)
CC50 at 24 h [3]: 78.1 µg/mL (≈ 205 µM)
MTT assay (Experimental Example 3) CC50 [7]: 78.125 µg/mL
SI value ([4]; B/Field, CC50/EC50): 3.125
EC50 ([4]; unidentified influenza virus): 25 µg/mL (≈ 65.5 µM)
EC50 [5, 8]: 0.097 to 0.195 µg/mL (≈ 0.254 to 0.511 µM)
SI value ([5]; Solomon (H1N1), CC50/EC50): 400.641 to 805.412
LD50 at 14 days [6]: > 2000 mg/kg

CCOC(=O)C1=C[C@@H](OC(CC)CC)[C@H](NC(C)=O)[C@@H](N)C1 [Oseltamivir, reference compound]
GFP reduction (Experimental Example 1) effect [1]: X
EC50 [2]: 0.391 µg/mL (≈ 1.25 µM)
CC50 at 24 h [3]: 625 to 1250 µg/mL (≈ 2000 to 4000 µM)
SI value ([4]; B/Field, CC50/EC50): 200 to 100
EC50 ([4]; unidentified influenza virus): 6.25 µg/mL (≈ 20 µM)
EC50 [5, 8]: 3.12 to 6.25 µg/mL (≈ 10 to 20 µM)
SI value ([5]; Solomon (H1N1), CC50/EC50): 100 to 400
LD50 at 14 days [6]: > 2000 mg/kg
